Results from patent US20230192653A1, “Novel Therapeutic Methods” (GUANGZHOU MAXINOVEL PHARMACEUTICALS CO., LTD., priority 2020, published 2023).
Several values for one entry are separate records, joined by “and”; a condition that tells them apart may be missing. Identical values can stand only once. Entries after “also recorded” stand apart in the source; their conditions may differ.

Legend:
Assay type in all cases: in vivo, human
[1] = tested on: Pancreatic Cancers (patient tumor cells in mini-PDX capsules); experiment: Mini-PDX assay, pancreatic cancers; conditions: Compound 1 12 mg per kg oral once daily 7 days, effective = P ≤ 0.05, per patient sample
Procedure: (§1) A mini patient-derived xenograft (mini-PDX) is used to assess the sensitivity of different tumors to treatment with Compound 1 (MAX-40279). In this experiment, clinical tumor samples from patients are treated in the mini-PDX by oral administration of Compound 1, and FGFR1OP2 expression level in those samples is analyzed.
(§2) Tumor tissue acquisition is approved by the ethics committees of each participating hospital and agreed to by each patient via written informed consent and is carried out according to state and institutional regulations on experimental use of human tissues. The patient samples are corrected if tumors >500 mm^3 in size with a necrotic area <30% are used. […]
(§3) Thereafter, the implanted capsules are removed, and tumor cell proliferation is evaluated using the CellTiter Glo Luminescent Cell Viability Assay kit (G7571, Promega, Madison, Wis., US) as instructed by the manufacturer. Luminescence is measured in terms of relative luminance unit (RLU) using a spectrophotometer (SpectraMax M3, Molecular Devices, Sunnyvale, Calif., US). Tumor cell growth inhibition (TCGI) (%) is calculated using the formula: TCGI %=(1−[mean RLU of the treatment group on day 7-mean RLU on day 0]/[Mean RLU of vehicle group on day 7−Mean RLU on day 0])×100%, Each experiment is done in sextuplicate and mean values are reported. […]

[2] = tested on: Liver Cancers (patient tumor cells in mini-PDX capsules); experiment: Mini-PDX assay, liver cancers; conditions: Compound 1 12 mg per kg oral once daily 7 days, effective = P ≤ 0.05, per patient sample
Procedure: as §1, §2, §3

[3] = tested on: Cholangiocarcinoma (patient tumor cells in mini-PDX capsules); experiment: Mini-PDX assay, cholangiocarcinoma; conditions: Compound 1 12 mg per kg oral once daily 7 days, effective = P ≤ 0.05, per patient sample
Procedure: as §1, §2, §3

[4] = tested on: Gastric Cancer (patient tumor cells in mini-PDX capsules); experiment: Mini-PDX assay, gastric cancer; conditions: Compound 1 12 mg per kg oral once daily 7 days, effective = P ≤ 0.05, per patient sample
Procedure: as §1, §2, §3

[5] = tested on: clinical tumor samples from patients; experiment: Mini-PDX assay, all tumor samples from patients
Procedure: FIG. 1 is the RLU (ATP Enzyme activity) of cells from mini-PDX vehicles. The cancer cells derived from patients were embedded in the mini-PDX vehicles and implanted in the mice for cultivating 7 days. The mice were treated with MAX-40279(12mpk, PO, BID) or not. After 7 days, cells in mini-PDX vehicles were collected and ATP Enzyme activity was used to represent the cell viability.
as §1, with “analyzed. […]” for “analyzed.”
as §3

cancer patients = experiment: Clinical efficacy of Compound 1 in cancer patients; design: key to CT Observation: Stable Disease, or SD, signifies that there has been no significant decrease or increase in the size of target lesions (including tumors), based on the smallest sum lesion diameter (LD); Progressive Disease, or PD, signifies that there has been an increase of at least 20% in the sum of the LD of targeted lesions; conditions: for CT Observation: per patient
Procedure: Stable Disease, or SD, signifies that there has been no significant decrease or increase in the size of target lesions (including tumors), based on the smallest sum lesion diameter (LD). Progressive Disease, or PD, signifies that there has been an increase of at least 20% in the sum of the LD of targeted lesions.
Patients are treated with Compound 1, given orally at the indicated daily dose. […] Although patients were not selected for high expression of FGFR1OP2 and FGFR1, the clinical response appears related to the expression levels of FGFR1OP2 and FGFR1. Squamous tumors seem particularly susceptible, as both patients with squamous tumors are SDs. Two of the three patients with SD are in 100 mg/day group, one of whom has 20% tumor reduction observed at the second and the fourth cycle by CT examination and is still under treatment. Adverse events are mild, so further dose escalation above 120 mg/day can be considered.

COc1cc(F)ccc1-c1c(C)sc2cnc(Nc3cnn(C4CCNCC4)c3)nc12 [Compound 1]
Efficacy (P ≤ 0.05) [1]: Non-effective; also recorded: effective | Efficacy (P ≤ 0.05) [2]: Non-effective; also recorded: effective | Efficacy (P ≤ 0.05) [3]: Non-effective; also recorded: effective | Efficacy (P ≤ 0.05) [4]: Non-effective; also recorded: effective | share of tumor samples from patients in which Compound 1 is effective ([5]; 30 tumor samples, mini-PDX, 13/30): 43% | Tumor cell growth inhibition (TCGI) ([5]; FIG. 1, initial screen of 4 samples, 7 days oral administration, compared to placebo): effective TCGI | CT Observation (cancer patients; 40 mg oral daily dose): SD | CT Observation (cancer patients; 70 mg oral daily dose): PD (Progressive Disease, or PD, signifies that there has been an increase of at least 20% in the sum of the LD of targeted lesions) | tumor reduction by CT examination (cancer patients; 100 mg oral daily dose, CRC, observed at second and fourth cycle): 20% | CT Observation (cancer patients; 100 mg oral daily dose): SD (2×) and PD (Progressive Disease, or PD, signifies that there has been an increase of at least 20% in the sum of the LD of targeted lesions) | Adverse events (cancer patients; patients, 40-100 mg oral daily dose): mild | stabilizes progression of the cancer (patients with SD) (cancer patients; seven patients, 40-100 mg oral daily dose): three of the seven patients
